The text below walks through data of patent publication US10021901B2, “Antimicrobial mixture of aldehydes, organic acids and fatty acid esters” (ANITOX CORPORATION, priority 2011, dated 2018).

≈ marks a conversion by molar mass, not a printed value. Read-outs that look alike come from different tables or passages of the source.

For data set [1], the system named is Salmonella typhimurium (ATTC:14028). In words: Organic acid esters against Salmonella typhimurium in test tubes (Example 1). In kind it is cell-based. The settings on record: for killing at 0.01 % / killing at 0.05 %: Salmonella enterica, TYPHIMURIUM, read-out: Reduction (% Reduction) of Salmonella typhimurium in vitro. The method, then: Methyl and ethyl esters of organic acids were added to test tubes at concentrations of 0.01% and 0.05%. Tubes were vortexed for 10 seconds to uniformly mix the solution. A suspension of Salmonella typhimurium (ATTC:14028) was added to each test tube to achieve a final concentration of 10^4 cfu/ml. The solutions were vortexed, incubated at room temperature for 24 hours and plated on XLT-4 agar. Plates were incubated for 48 hours at 37° C. before enumerating colonies.

The test system of data set [2] is Helicobacter pylori and S. cholerasuis. The settings on record: Kubo 1999; Kubo and Fujita 2001; cited from earlier work.
Data set [3] has as its system B. cereus, S. typhimurium, V. parahaemolyticus, L. monocytogenes, S. aureus and E. coli O157:H7. The settings on record: cited from earlier work.
Data set [4] relates to P. syringae pathovars. The note with it: vapour; cited from earlier work.
Data set [5] relates to E. coli. The note with it: vapour; cited from earlier work.
The subject of data set [6] is Phoma mycelium. The note with it: cited from earlier work.
For data set [7], the system named is Penicillium expansum. The settings on record: blue mold; cited from earlier work.
For data set [8], the system named is A. flavus, P. notatum, A. alternate, F. oxysporum, Cladosporium spp., B. subtilis and A. tumerfaciens. The note with it: cited from earlier work.
For data set [9], the system named is yeast (10^5 CFU/bottle) in beverages. The note with it: cited from earlier work.
Data set [10] deals with apricots, peaches and nectarines. The settings on record: cited from earlier work.
Data set [11] relates to Staphylococcus aureus, E. coli and Salmonella typhimurium. The note with it: cited from earlier work.
Data set [12] concerns M. gypseum. The note with it: cited from earlier work.
The mark [13] stands for this setting: Ethyl Ester, 0.01% Dilution, 24 hours room temperature, compared to control.
Where [14] appears, read: Ethyl Ester, 0.05% Dilution, 24 hours room temperature, compared to control.
Where [15] appears, read: Methyl Ester, 0.01% Dilution, 24 hours room temperature, compared to control.
Setting [16] is: Methyl Ester, 0.05% Dilution, 24 hours room temperature, compared to control.

As for `CCC(=O)OC` [Propionic acid Methyl Ester], in data set [1] (24 h), the killing at 0.01 % was 9% and the killing at 0.05 % is 19%.
With `CCCCCC(=O)OCC` [Caproic (hexanoic) acid Ethyl Ester, Ethyl hexanoate], the killing at 0.01 % in data set [1] (setting [13]) turned out to be 100%. Further, in [1] (setting [14]), the killing at 0.05 % worked out at 100%.
Regarding `CCC/C=C/C=O` [trans-2-hexenal], in data set [2], the minimum biocidal activity was 800 µg/mL and the minimum inhibitory activity is 400 µg/mL. The effective concentration in data set [3] is recorded as 247 mg/L. In addition, the “concentration that completely inhibited proliferation” value in data set [4] is given as 570 μg/L of air. The “concentration that completely inhibited proliferation” value in data set [5] is reported as 930 micrograms/L of air. Moreover, the “concentration effective on inhibiting growth” value in [6] is 250 µg/mL. Also, in [7], the “concentration effective on controlling Penicillium expansum” value is 12.5 μl/l. Also, the “concentration that completely inhibited growth” value in [8] was 8 ng/l air. The “concentration necessary to control microorganisms” value in data set [9] (beverages not thermally treated) is on record as 35 ppm. The “concentration for control of yeast” value in data set [9] (with thermal treatment (56° C. for 20 min), equivalent to citral) is recorded as 25 ppm. The phytotoxicity result in data set [10] (apricots) is listed as “not phytotoxic”. For the same compound, the phytotoxic concentration in [10] (peaches and nectarines) is 40 μl/l.
Consider `COC(=O)CC(=O)O` [Malonic acid Methyl Ester], for which, in data set [1] (setting [15]), the killing at 0.01 % was 13%. Moreover, in data set [1] (setting [16]), the killing at 0.05 % worked out at 9%.
Take `CC/C=C/CC=O` [trans-3-hexenal]: the “level effective in controlling bacteria” value in [11] was 3 to 30 µg/mL.
As to `CCCCC/C=C\C/C=C\CCCCCCCC(=O)OC` [Linoleic acid Methyl Ester, methyl linoleate], the killing at 0.01 % in [1] (setting [15]) stood at 14%. The killing at 0.05 % in data set [1] (setting [16]) was found to be 0%.
In the case of `CCCCCCCCCC(=O)OCC` [Capric (decanoic) acid Ethyl Ester], the “Reduction (% Reduction) of Salmonella typhimurium in vitro” value (shortened to “Reduction (% Reduction)”) in data set [1] (setting [13]) and in [1] (setting [14]) was 0% throughout.
`COC(C)=O` [Acetic acid Methyl Ester]: in data set [1] (setting [15]), the killing at 0.01 % stood at 0%. Also, the killing at 0.05 % in [1] (setting [16]) amounted to 29%.
Turning to `CCOC(C)=O` [Acetic acid Ethyl Ester], the killing at 0.01 % in data set [1] (setting [13]) was determined as 0%. Also, in data set [1] (setting [14]), the killing at 0.05 % was 0%.
Take `COC=O` [Formic acid Methyl Ester]: the killing at 0.01 % in data set [1] (setting [15]) was determined as 0%. In [1] (setting [16]), the killing at 0.05 % came out at 5%.
With `CCOC(=O)CC(C)C` [Isovaleric acid Ethyl Ester], in data set [1] (setting [13]), the killing at 0.01 % worked out at 61%. In data set [1] (setting [14]), the killing at 0.05 % was 100%.
On to `CCCCCCCCCCCCCC(=O)OCC`, for which the “Reduction (% Reduction)” value in [1] (setting [13]) came to 12%; in [1] (setting [14]) it was 8%.
For the compound `CCCCC/C=C\C/C=C\CCCCCCCC(=O)OCC` [Linoleic acid Ethyl Ester], the killing at 0.01 % in data set [1] (setting [13]) came out at 0%. Moreover, in data set [1] (setting [14]), the killing at 0.05 % was found to be 0%.
For `CCCCCCCC(=O)OCC` [Caprylic (octanoic) acid Ethyl Ester], the “Reduction (% Reduction)” value is reported as 66% in data set [1] (setting [13]) and 65% in data set [1] (setting [14]).
`CCCCCCCCCC(=O)O` [capric acid, reference compound]: the results for the “minimum inhibitory concentration (MIC)” value in [12] (liquid media) and in data set [12] (solid media) were 75 mg/L (≈ 435 µM) and 20 mg/L (≈ 116 µM), respectively.
Turning to `CCCCC(=O)OCC` [Valeric (pentanoic) acid Ethyl Ester, Ethyl pentanoate], in [1] (24 h), the killing at 0.01 % came to 93% and the killing at 0.05 % is 100%.
Consider `CC(=O)OCCC(C)C` [Isoamyl acetate], for which the “Effectiveness against Salmonella in words” value in [1] (0.01% and 0.05%) was “bactericidal activity”. Besides, in [1] (isoamyl acetate itself, 0.01% Dilution, 24 hours), the killing at 0.01 % was determined as 44%. Moreover, the killing at 0.05 % in [1] (isoamyl acetate itself, 0.05% Dilution, 24 hours) stood at 100%.
`CCOC(=O)c1ccccc1` [Benzoic acid Ethyl Ester, Ethyl benzoate]: in data set [1] (24 h), the killing at 0.01 % amounted to 100% and the killing at 0.05 % is 100%.
Regarding `CCCCCCCCCCCC(=O)OCC` [Lauric (dodecanoic) acid Ethyl Ester], the “Reduction (% Reduction)” value in [1] (setting [13]) and in data set [1] (setting [14]) was 0% in each case.
For `CCCCC(=O)OC` [Valeric (pentanoic) acid Methyl Ester, Methyl pentanoate], in data set [1] (24 h), the killing at 0.01 % turned out to be 10% and the killing at 0.05 % worked out at 100%.
For `CCCCCCCCCC(=O)OC` [Capric (decanoic) acid Methyl Ester], the “Reduction (% Reduction)” value in data set [1] (setting [15]) is reported as 8%; in data set [1] (setting [16]), 0%.
For `CCOC(=O)CC` [Propionic acid Ethyl Ester], the killing at 0.01 % in data set [1] (setting [13]) came to 0%. Moreover, the killing at 0.05 % in data set [1] (setting [14]) turned out to be 40%.
Take `CCCCCCCCCCCCCC(=O)OC`: the “Reduction (% Reduction)” value in data set [1] (setting [15]) was 43%; in data set [1] (setting [16]), 49%.
For the compound `CCCCCCCC(=O)OC` [Caprylic (octanoic) acid Methyl Ester, Methyl octanoate], the killing at 0.01 % in data set [1] (setting [15]) came to 94%. For the same compound, the killing at 0.05 % in data set [1] (setting [16]) amounted to 94%.
Turning to `COC(=O)CCC(C)=O` [Levulinic acid Methyl Ester], the killing at 0.01 % in data set [1] (setting [15]) is 0%. In addition, the killing at 0.05 % in [1] (setting [16]) was 12%.
With `CCOC(=O)CCC(C)=O` [Levulinic acid Ethyl Ester], the killing at 0.01 % in data set [1] (setting [13]) is 0%. Moreover, the killing at 0.05 % in [1] (setting [14]) was 8%.
Consider `COC(=O)C(C)C` [Isobutyric acid Methyl Ester], for which the killing at 0.01 % in [1] (setting [15]) was determined as 3%. For the same compound, the killing at 0.05 % in data set [1] (setting [16]) is 41%.
Consider `CC(C)=CCCC(C)=CC=O` [citral, reference compound], for which the “equivalent concentration for control of yeast” value in data set [9] (equivalent to 25 ppm trans-2-hexenal and thermal treatment) was 100-120 ppm.
Turning to `CCCC(=O)OCC` [Butyric acid Ethyl Ester, Ethyl butyrate], in data set [1] (setting [13]), the killing at 0.01 % was found to be 28%. Besides, the killing at 0.05 % in data set [1] (setting [14]) turned out to be 100%.
As for `CCCCCCCCC(=O)O` [nonanoic acid], the figures for the “minimum inhibitory concentration (MIC)” value in [12] (liquid media) and in data set [12] (solid media) were 50 mg/L (≈ 316 µM) and 40 mg/L (≈ 253 µM), respectively.
With `COC(=O)c1ccccc1` [Benzoic acid Methyl Ester, Methyl benzoate], in data set [1] (24 h), the killing at 0.01 % amounted to 34% and the killing at 0.05 % was 100%.
For the compound `CCCCCC(=O)OC` [Caproic (hexanoic) acid Methyl Ester, Methyl hexanoate], in data set [1] (setting [15]), the killing at 0.01 % came to 99%. For the same compound, the killing at 0.05 % in data set [1] (setting [16]) was 100%.
On to `CCCCCCCCCCCC(=O)OC` [Lauric (dodecanoic) acid Methyl Ester, Methyl laurate], for which, in data set [1] (setting [15]), the killing at 0.01 % is 1%. Besides, the killing at 0.05 % in [1] (setting [16]) amounted to 0%.
With `CCOC(=O)CC(=O)O` [Malonic acid Ethyl Ester], the killing at 0.01 % in data set [1] (setting [13]) worked out at 36%. Also, in [1] (setting [14]), the killing at 0.05 % was 57%.
Turning to `CCCC(=O)OC` [Butyric acid Methyl Ester], in data set [1] (24 h), the killing at 0.01 % stood at 0% and the killing at 0.05 % turned out to be 28%.
